According to patent US20110212954A1, “ALPHA-LIPOIC ACID DERIVATIVES AND THEIR USE IN DRUG PREPARATION” (priority 2008, published 2011):

Legend:
[1] = Pharmacokinetic study in rats after oral administration of a single dose, HPLC-MS of plasma; assay type: in vivo; conditions: rat, single dose 48.5 μmol/kg
Method: The bioavailability of some compounds synthesized (Examples 1a, 2, 2a, 3, 3a, 10, 15a, 16a and 24) was studied in rats after oral administration of a single dose (48.5 μmol/kg) and compared with the reference (R)- or (RS)-α-LA.
Each treatment was carried out on groups of 6 male rats (Sprague-Dawley SD rat) per compound. At regular times, blood withdrawals were carried out for the measurement by HPLC-MS of the concentration of plasmatic α-LA (FIGS. 5, 7, 9) and of the residual compound administered (FIGS. 6, 8).

HepG2 cells [2] = assay: Variation in NADPH levels (total NADPH/NADP ratio), spectrophotometric kit; assay type: cell-based, human; conditions: HepG2 cells, 5, 10, 100 and 500 μM, 72 hours
Source text: (§1) Although it is known that under hyperglycemic conditions α-LA induces AMPK activation in hepatic cells, the molecular mechanisms responsible for this biochemical process are not yet known. As envisaged in the description, the inventors of the present invention have advanced the hypothesis that AMPK activation by α-LA is the result of changes in the amount of NADH and NADHP present in cells, due to the interference of α-LA and/or its analogous derivatives in the oxidation-reduction processes. To verify this hypothesis, use was made of commercial kits (by Valter Occhiena) able to analyze the variations in the cellular amounts of NAD(P)H relative to total NAD(P), in the presence of increasing concentrations of the compounds under analysis (total NAD=NADH+NAD^+; total NADP=NADPH+NADP^+).

HepG2 cells [3] = assay: Variation in NADH levels (total NADH/NAD ratio), spectrophotometric kit; assay type: cell-based, human; conditions: 72 hours
Source text: as §1

diabetic rats = conditions: diabetes type II models, high doses of α-LA (30 mg/kg in rats); cited from earlier work
[4] = in man, cited from earlier work
[5] = test system: human hepatocarcinoma cells (HepG2 cells); assay: Evaluation of cell viability (ATPlite luminometric assay) and cell proliferation; assay type: cell-based; conditions: 1 mM
Method: Dose-dependent concentration studies of the synthesized compounds were carried out and compared with the effects of alpha-lipoic acid, defined as reference standard, on human hepatocarcinoma cells (HepG2 cells) with the aim of evaluating their effects on cell viability.
Analysis by optical microscope enabled any morphological changes and accumulation of lipid vesicles to be determined as well as to evaluate cell proliferation or arrest.
A luminometric assay (ATPlite, Perkin Elmer), based on the production of light caused by a reaction with the intracellular ATP of viable cells, enabled the compounds to be classified on the basis of their viability index. In this respect, the signal detected by the luminometer is proportional to the number of viable cells. […]

| Compound | released alpha-lipoic acid and compound itself in plasma, any withdrawal time [1] | effect on NADPH levels (FIG. 11) (HepG2 cells [2]) | NADH levels relative to control at 5 μM (FIG. 10) (HepG2 cells [3]; 5 μM) | glycemia in diabetic rats (diabetic rats) | bioavailability after oral administration ([4]; oral) | plasma half life (t1/2) [4] [min] | confluence reached by HepG2 cells (arrest of cell proliferation) [5] | amount of NADH at high concentrations (FIG. 10) (HepG2 cells [3]; 100 and 500 μm) |
| --- | --- | --- | --- | --- | --- | --- | --- | --- |
| O=C(CCCCC1CCSS1)NCCCN1CCOCC1 (racemic) [Example 3a, 5-[1,2]dithiolan-3-yl-pentanoic acid(3-morpholin-4-yl-propyl)-amide] | neither released alpha-lipoic acid nor the compound itself was detected | influenced NADPH levels, in a dose dependent manner | lower NADH levels than the control | – | – | – | – | – |
| O=C(O)CCCC[C@@H]1CCSS1 (racemic) [α-LA, 1,2-dithiolane-3-pentanoic acid] | – | – | – | reduces glycemia | less than 30% | 28 | – | – |
| O=C(O)CCCC[C@@H]1CCSS1 [(R)-α-LA, (R)-alpha-lipoic acid, reference compound] | – | influenced NADPH levels, in a dose dependent manner | – | – | – | – | 60-70% | decrease in NADH levels |
